# Experimental data published in ChEMBL document CHEMBL1201862, “PubChem BioAssay data set” (2004).
# Activity calls are given as the source filed them.
# How the values were obtained:
# [1] = tested on: BJ; assay: BJ-TERT fibroblast viability loss – cell-based, RAS-independent, luminescence, dose response (AID 1933); format: functional; settings: Homo sapiens
# [2] = tested on: Vero; assay: mammalian cell viability reduction – secondary assay, cytotoxicity control for West Nile virus antiviral project, dose response (AID 1650); format: functional; settings: Chlorocebus sabaeus
# [3] = tested on: BJ; assay: cells; format: functional, cell-based; settings: Homo sapiens
# [4] = tested on: Vero; assay: inhibition of WNV-induced cytopathic effect – cell-based, CPE readout (AID 1621); format: functional; settings: Chlorocebus sabaeus
# [5] = tested on: BJ; assay: BJ-TERT-LT-ST fibroblast viability loss – cell-based, RAS-independent, luminescence, dose response (AID 1935); format: functional; settings: Homo sapiens;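 note: BJ fibroblasts immortalized with TERT plus LT and ST oncogenes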
# [6] = DRD fibroblast viability loss – cell-based, non-viral oncogenic, luminescence, dose response (AID 1934); format: functional; settings: Homo sapiens
# [7] = tested on: Vero; assay: cells; format: functional, cell-based; settings: Chlorocebus sabaeus
# [8] = tested on: BJ; assay: growth inhibition of engineered Ras-driven BJ cells – cell-based, alamar blue fluorescence, cherrypicked samples, dose response (AID 2631); format: functional; settings: Homo sapiens;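 note: confirmatory dose-response assay in RAS-dependent BJ fibroblasts engineered with TERT, LT and ST, with cytotoxicity read by fluorescence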
# [9] = tested on: Vero; assay: cells; format: functional; settings: Chlorocebus sabaeus
# [10] = target: T1, Low molecular weight phosphotyrosine protein phosphatase (Homo sapiens, UniProt P24666); assay: inhibition of LMPTP-A enzymatic activity – biochemical, OMFP substrate, fluorescence intensity, set 2, dose response (AID 743307); format: functional
# T1 sequence (P24666 whole entry, canonical isoform): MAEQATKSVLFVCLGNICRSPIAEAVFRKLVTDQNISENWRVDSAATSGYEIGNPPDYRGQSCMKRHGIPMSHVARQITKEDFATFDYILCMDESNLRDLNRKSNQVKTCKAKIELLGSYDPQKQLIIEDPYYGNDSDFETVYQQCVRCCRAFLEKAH
# [11] = target: T1, Low molecular weight phosphotyrosine protein phosphatase; assay: inhibition of human LMPTP enzyme activity – biochemical, absorbance, pNPP substrate, LMPTP-A isoform, set 2, orthogonal assay, dose response (AID 743308); format: functional
# [12] = Luminescence Cell-Based Dose Response to Identify Activators of 5'UTR Stem-Loop Driven Prion Protein mRNA Translation in H4-C Neuroglioblastoma Cells. [Related pubchem assays: 1829 (Project Summary), 1814 (Primary HTS)]; format: functional
# [13] = Luminescence Cell-Based Dose Response HTS to Identify Activators of Luciferase Translation or Activity in H4 […] Cells. [Related pubchem assays: 1829 (Project Summary), 1814 (Primary HTS)]; format: functional
# [14] = tested on: H4; assay: Luminescence Cell-Based Dose Response HTS to Identify Activators of 5'UTR Stem-Loop Driven Prion Protein mRNA Translation in H4 Neuroglioblastoma Cells. [Related pubchem assays: 1829 (Project Summary), 1814 (Primary HTS)]; format: functional; settings: Homo sapiens
# [15] = Luminescence Cell-Based Dose Response to Identify Activators of Luciferase Translation or Activity in H4-C Neuroglioblastoma Cells. [Related pubchem assays: 1829 (Project Summary), 1814 (Primary HTS)]; format: functional
# [16] = Luminescence Cell-Based Dose Confirmation to Identify Activators of 5'UTR Stem-Loop Driven Alpha-Synuclein mRNA Translation in H4 Neuroglioblastoma Cells. [Related pubchem assays: 1829 (Project Summary), 1814 (Primary HTS)]; format: functional
# [17] = target: NAD-dependent protein deacylase sirtuin-5, mitochondrial (Homo sapiens, UniProt Q9NXA8); assay: blockers of sirtuin-5 peptide desuccinylation – biochemical, fluorescence imaging, cherry-pick, set 6, dose response (AID 720597)
# NAD-dependent protein deacylase sirtuin-5, mitochondrial, sequence (Q9NXA8 whole entry): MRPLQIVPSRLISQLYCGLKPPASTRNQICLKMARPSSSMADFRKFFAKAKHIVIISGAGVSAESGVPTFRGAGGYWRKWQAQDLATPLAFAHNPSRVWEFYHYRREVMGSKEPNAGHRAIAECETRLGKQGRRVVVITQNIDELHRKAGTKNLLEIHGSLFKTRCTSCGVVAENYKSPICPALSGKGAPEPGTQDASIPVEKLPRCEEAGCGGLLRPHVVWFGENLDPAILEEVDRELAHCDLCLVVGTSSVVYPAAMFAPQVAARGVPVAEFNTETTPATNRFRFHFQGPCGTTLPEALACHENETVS
# [18] = target: T2, Bcl-2-related protein A1 (Mus musculus, UniProt Q07440); assay: displacement of Bid BH3 peptide from Bfl-1 – biochemical, fluorescence polarization, FITC-Bid, mouse, primary screen (AID 432)
# T2 sequence (Q07440 whole entry): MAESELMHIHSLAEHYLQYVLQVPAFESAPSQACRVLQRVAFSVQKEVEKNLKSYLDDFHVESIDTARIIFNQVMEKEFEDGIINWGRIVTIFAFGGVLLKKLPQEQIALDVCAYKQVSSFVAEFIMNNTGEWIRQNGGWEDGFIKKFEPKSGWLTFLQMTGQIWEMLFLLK
# [19] = target: T2, Bcl-2-related protein A1; assay: small-molecule antagonists of Bfl-1/BH3 interaction – biochemical, TR-FRET, mouse Bfl-1, confirmation (AID 621);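 note: TR-FRET binding of GST-Bfl-1 to FITC-labelled Bid peptide via terbium antibody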
# [20] = blockers of HIV-1 envelope-mediated cell-cell fusion – cherry-pick, dose response (AID 652057); format: functional, cell-based
# [21] = blockers of HIV-1 ZM109 envelope-driven cell-cell fusion – HeLa effector, CEM target cells, luciferase, cherry-pick, dose response (AID 652058); format: functional, cell-based;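 note: luciferase signal from HIV-1 Env mediated cell-cell fusion of effector and target cells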
# [22] = inhibition of Env-driven cell fusion – HIV entry, plate reader, dry powder, dose response (AID 687023); format: functional, cell-based
# [23] = viability loss in CEM21 cells – cell-based, plate reader, dry powder, cytotoxicity control, dose response (AID 687026); format: functional
# [24] = Inhibition of T. cruzi Tulahuen strain amastigotes in L-6 muscle cells Measured in Cell-Based and Microorganism Combination System Using Plate Reader - 2138-03_Inhibitor_Dose_CherryPick_Activity.; format: functional; settings: Rattus norvegicus, L6
# [25] = L6 myocyte viability loss – cell-based, plate reader, cherry-pick, cytotoxicity control, dose response (AID 651896); format: functional
# [26] = Inhibition of Plasmodium falciparum NF54 Measured in Cell-Based System Using Plate Reader - 2138-11_Inhibitor_Dose_CherryPick_Activity.; format: functional
# [27] = antileishmanial activity on axenic amastigotes – plate reader, cherry pick, dose response (AID 651891); format: functional, cell-based; settings: Leishmania donovani
# [28] = intracellular Trypanosoma cruzi inhibitors in host cells – cell-based, plate reader, cherry-pick samples, set 3, dose response (AID 651818); format: functional;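 note: compounds incubated with infected cells for about four days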
# [29] = African trypanosome bloodstream form growth inhibition – STIB900 strain, plate reader, cherry pick, dose response (AID 651893); format: functional, cell-based, Trypanosoma brucei rhodesiense; settings: Trypanosoma brucei
# [30] = T. cruzi growth inhibition in host cells, dose response, cell-based, plate reader, dry powder, set 2 (AID 652275); format: functional
# [31] = Trypanosoma cruzi replication inhibitors in host cells – cell-based, plate reader, dry powder samples, dose response (AID 651845); format: functional
# [32] = anti-trypanosomal activity in BESM host cells – imaging, CA-I/72 strain, bovine embryo skeletal muscle, dry powder, dose response (AID 651885); format: functional, cell-based
compound,measurement,setting,value
Cc1ccc(NC(=O)[C@H](Cc2c[nH]c3ccccc23)NC(=O)[C@@H]2Cc3ccccc3CN2)c(C)c1,EC50,[1],21.1 µM (active)
same,CC50,[2],12.5 µM (active)
same,EC50,[3],20.7 µM (active)
same,IC50,[4],43.3 µM (active)
same,EC50,[5],> 150 µM (not active)
same,EC50,[6],112 µM (inconclusive)
same,IC50,[7],1.91 µM (active)
same,EC50,[8],> 133 µM (inactive)
same,CC50,[9],15.9 µM (active)
c1ccc(-c2cc(NCCCN3CCCCC3)c3ccccc3n2)cc1,IC50,[10],1.56 µM (active)
same,IC50,[11],2.98 µM (active)
Cc1nc2c(-c3ccccc3)cnn2c(N2CCOCC2)c1C,EC50,[12],0.246 µM (active)
same,EC50,[13],< 0.1 µM (active)
same,EC50,[14],0.108 µM (active)
same,EC50,[15],0.246 µM (active)
same,EC50,[16],2.38 µM (active)
CCCNC(=O)Nc1ccc2c(c1)C(=O)N(C)[C@H]1CC[C@H](CC(=O)NCC3CCCCC3)O[C@@H]1CO2,AC50,[17],> 30 µM (inactive)
OCCCc1nc2n(n1)C(c1cccs1)C=C(c1ccccc1)N2 (configuration not stated),IC50,[18],> 100 µM (not active)
same,IC50,[19],> 100 µM (not active)
C[C@@H]1CN([C@@H](C)CO)C(=O)c2cccc(NS(=O)(=O)c3ccc(F)cc3)c2O[C@@H]1CN(C)Cc1ccc(C(F)(F)F)cc1,AC50,[20],0.295 µM (active)
same,AC50,[21],0.451 µM (active)
same,AC50,[22],4.05 µM (active)
same,AC50,[23],43.9 µM (active)
C[C@@H]1CN([C@H](C)CO)C(=O)c2cccc(NC(=O)c3ccncc3)c2O[C@H]1CN(C)Cc1ccccc1,IC50,[24],5.64 µM (inactive)
same,IC50,[25],> 100 µM (inactive)
same,IC50,[26],5.64 µM (inactive)
same,IC50,[27],> 100 µM (inactive)
same,AC50,[28],0.08 µM (active)
same,IC50,[29],6.14 µM (inactive)
same,AC50,[30],0.00561 µM (active)
same,AC50,[31],0.064 µM (active)
same,IC50,[32],0.0144 µM (active)
